{
  "source": "the supplement of paper PMC10307832",
  "assay_in_all_cases": "relative viability (nuclei count vs DMSO), 5 days (fraction); higher = more cells survive",
  "key": {"[1]": {"system": "NCI-H1703", "summary_of_the_method": "(§1)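 For relative viability, nuclei counts in treated wells were divided by those in vehicle wells. Lung cancer cell lines had been pin-tool dosed in 1536-well plates the day after seeding and cultured for 5 days, then fixed and stained in one step (final 0.05% Triton X-100, 1% formaldehyde, 1 ug/ml Hoechst) and imaged at 4×. Doses were one drug alone or a fixed anchor-drug dose plus five library-drug doses (not always all listed) in √10 steps, and values are duplicate-plate medians.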"}, "[2]": {"system": "CAL-12T", "summary_of_the_method": "as §1"}, "[3]": {"system": "Calu-6", "summary_of_the_method": "as §1"}, "[4]": {"system": "A549", "summary_of_the_method": "as §1"}, "[5]": {"system": "NCI-H1734", "summary_of_the_method": "as §1"}, "[6]": {"system": "UMC-11", "summary_of_the_method": "as §1"}, "[7]": {"system": "EBC-1", "summary_of_the_method": "as §1"}, "[8]": {"system": "LK-2", "summary_of_the_method": "as §1"}, "[9]": {"system": "NCI-H2009", "summary_of_the_method": "as §1"}, "[10]": {"system": "NCI-H1299", "summary_of_the_method": "as §1"}, "[11]": {"system": "A-427", "summary_of_the_method": "as §1"}, "[12]": {"system": "IA-LM", "summary_of_the_method": "as §1"}, "[13]": {"system": "NCI-H1650", "summary_of_the_method": "as §1"}},
  "data": [
    {"smiles": "CC(=O)O[C@@]12CO[C@@H]1C[C@H](O)[C@@]1(C)C(=O)[C@H](O)C3=C(C)[C@@H](OC(=O)[C@H](O)[C@@H](NC(=O)OC(C)(C)C)c4ccccc4)C[C@@](O)([C@@H](OC(=O)c4ccccc4)[C@H]21)C3(C)C", "note": "[Docetaxel] + C[C@@H](Oc1cc(-c2cnn(C3CCNCC3)c2)cnc1N)c1c(Cl)ccc(F)c1Cl [Crizotinib] (partner 1 µM)", "values": [
      {"measurement": "relative viability", "setting": "[1]; first compound 0.0002 µM", "result": 0.483},
      {"measurement": "relative viability", "setting": "[1]; first compound 0.000632 µM", "result": 0.379},
      {"measurement": "relative viability", "setting": "[1]; first compound 0.002 µM", "result": 0.226},
      {"measurement": "relative viability", "setting": "[1]; first compound 0.006325 µM", "result": 0.0913},
      {"measurement": "relative viability", "setting": "[1]; first compound 0.02 µM", "result": 0.133},
      {"measurement": "relative viability", "setting": "[2]; first compound 0.0002 µM", "result": 0.717},
      {"measurement": "relative viability", "setting": "[2]; first compound 0.000632 µM", "result": 0.341},
      {"measurement": "relative viability", "setting": "[2]; first compound 0.002 µM", "result": 0.146},
      {"measurement": "relative viability", "setting": "[2]; first compound 0.02 µM", "result": 0.096},
      {"measurement": "relative viability", "setting": "[3]; first compound 0.0002 µM", "result": 0.805},
      {"measurement": "relative viability", "setting": "[3]; first compound 0.000632 µM", "result": 0.394},
      {"measurement": "relative viability", "setting": "[3]; first compound 0.002 µM", "result": 0.219},
      {"measurement": "relative viability", "setting": "[3]; first compound 0.006325 µM", "result": 0.159},
      {"measurement": "relative viability", "setting": "[3]; first compound 0.02 µM", "result": 0.105},
      {"measurement": "relative viability", "setting": "[4]; first compound 0.0002 µM", "result": 0.641},
      {"measurement": "relative viability", "setting": "[4]; first compound 0.000632 µM", "result": 0.432},
      {"measurement": "relative viability", "setting": "[4]; first compound 0.002 µM", "result": 0.0535},
      {"measurement": "relative viability", "setting": "[4]; first compound 0.006325 µM", "result": 0.0545},
      {"measurement": "relative viability", "setting": "[4]; first compound 0.02 µM", "result": 0.0485},
      {"measurement": "relative viability", "setting": "[5]; first compound 0.0002 µM", "result": 0.498},
      {"measurement": "relative viability", "setting": "[5]; first compound 0.000632 µM", "result": 0.576},
      {"measurement": "relative viability", "setting": "[5]; first compound 0.002 µM", "result": 0.362},
      {"measurement": "relative viability", "setting": "[5]; first compound 0.006325 µM", "result": 0.298},
      {"measurement": "relative viability", "setting": "[5]; first compound 0.02 µM", "result": 0.246},
      {"measurement": "relative viability", "setting": "[6]; first compound 0.0002 µM", "result": 0.612},
      {"measurement": "relative viability", "setting": "[6]; first compound 0.000632 µM", "result": 0.485},
      {"measurement": "relative viability", "setting": "[6]; first compound 0.002 µM", "result": 0.122},
      {"measurement": "relative viability", "setting": "[6]; first compound 0.006325 µM", "result": 0.108},
      {"measurement": "relative viability", "setting": "[6]; first compound 0.02 µM", "result": 0.084},
      {"measurement": "relative viability", "setting": "[7]; first compound 0.0002 µM", "result": 0.187},
      {"measurement": "relative viability", "setting": "[7]; first compound 0.000632 µM", "result": 0.146},
      {"measurement": "relative viability", "setting": "[7]; first compound 0.002 µM", "result": 0.167},
      {"measurement": "relative viability", "setting": "[7]; first compound 0.006325 µM", "result": 0.163},
      {"measurement": "relative viability", "setting": "[7]; first compound 0.02 µM", "result": 0.151},
      {"measurement": "relative viability", "setting": "[8]; first compound 0.0002 µM", "result": 0.209},
      {"measurement": "relative viability", "setting": "[8]; first compound 0.000632 µM", "result": 0.202},
      {"measurement": "relative viability", "setting": "[8]; first compound 0.002 µM", "result": 0.228},
      {"measurement": "relative viability", "setting": "[8]; first compound 0.006325 µM", "result": 0.213},
      {"measurement": "relative viability", "setting": "[8]; first compound 0.02 µM", "result": 0.228},
      {"measurement": "relative viability", "setting": "[9]; first compound 0.0002 µM", "result": 0.95},
      {"measurement": "relative viability", "setting": "[9]; first compound 0.000632 µM", "result": 1.03},
      {"measurement": "relative viability", "setting": "[9]; first compound 0.002 µM", "result": 0.426},
      {"measurement": "relative viability", "setting": "[9]; first compound 0.006325 µM", "result": 0.252},
      {"measurement": "relative viability", "setting": "[9]; first compound 0.02 µM", "result": 0.174},
      {"measurement": "relative viability", "setting": "[10]; first compound 0.0002 µM", "result": 0.972},
      {"measurement": "relative viability", "setting": "[10]; first compound 0.000632 µM", "result": 0.984},
      {"measurement": "relative viability", "setting": "[10]; first compound 0.002 µM", "result": 0.695},
      {"measurement": "relative viability", "setting": "[10]; first compound 0.006325 µM", "result": 0.392},
      {"measurement": "relative viability", "setting": "[10]; first compound 0.02 µM", "result": 0.305},
      {"measurement": "relative viability", "setting": "[11]; first compound 0.0002 µM", "result": 0.998},
      {"measurement": "relative viability", "setting": "[11]; first compound 0.000632 µM", "result": 0.859},
      {"measurement": "relative viability", "setting": "[11]; first compound 0.002 µM", "result": 0.506},
      {"measurement": "relative viability", "setting": "[11]; first compound 0.006325 µM", "result": 0.221},
      {"measurement": "relative viability", "setting": "[11]; first compound 0.02 µM", "result": 0.167},
      {"measurement": "relative viability", "setting": "[12]; first compound 0.0002 µM", "result": 0.395},
      {"measurement": "relative viability", "setting": "[12]; first compound 0.000632 µM", "result": 0.145},
      {"measurement": "relative viability", "setting": "[12]; first compound 0.002 µM", "result": 0.0955},
      {"measurement": "relative viability", "setting": "[12]; first compound 0.006325 µM", "result": 0.078},
      {"measurement": "relative viability", "setting": "[12]; first compound 0.02 µM", "result": 0.0873},
      {"measurement": "relative viability", "setting": "[13]; first compound 0.0002 µM", "result": 0.906},
      {"measurement": "relative viability", "setting": "[13]; first compound 0.000632 µM", "result": 0.398},
      {"measurement": "relative viability", "setting": "[13]; first compound 0.002 µM", "result": 0.206},
      {"measurement": "relative viability", "setting": "[13]; first compound 0.006325 µM", "result": 0.185},
      {"measurement": "relative viability", "setting": "[13]; first compound 0.02 µM", "result": 0.141}
    ]}
  ]
}
